PubChem BioAssay AID1902 (Broad Institute, 2009)
The source made the active and inactive calls.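 How the source made its calls: active means EC50 no more than a set limit of log units above the highest dose; inactive means the rest.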

biological target: S. pyogenes SKKanGAS, kanamycin survival, BacTiterGlo, 6 h; experiment: S. pyogenes SKKanGAS kanamycin growth inhibitors – SKKanGAS strain, luminescence, dose confirmation, streptokinase promoter inhibitor project, dose response (AID 1902);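 further: lower survival reflects blocked streptokinase promoter driving kanamycin resistance gene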

Row | SMILES | EC50
1 | O=C(/C=C/c1ccco1)Nc1nc(-c2ccccn2)cs1 | 0.362 µM
2 | CC1CCN(c2nc3ccccc3nc2C(C#N)C(=O)NC2CCCCC2)CC1 (stereo not drawn) | 1.9 µM
3 | Cc1cc(N/N=C/c2cccc(Br)c2)nc2ccccc12 | 5.25 µM
4 | CN1CCN(c2c(F)cc3c(=O)c(C(=O)O)cn4c3c2OCN4C)CC1 | 3.29 µM
5 | Cc1cccc(CCNC(=O)CC2C(=O)NCCN2Cc2ccccc2C)n1 (stereo not drawn) | > 15 µM (inactive)
6 | CC1(C)Cc2c(cnn2-c2ccccc2)-c2c1c1ccccc1n2CC(O)CCl (stereo not drawn) | 5.24 µM
7 | COC(=O)c1ccc2[nH]c3cccc(/C(=C/c4ccccc4)c4ccccc4)c3c2c1 | 1.12 µM
8 | O=C(Cc1cccs1)NNC(=S)NC(=O)c1ccccc1 | 3.29 µM
9 | Cc1ccc(NC(=S)NC2CCSc3ccccc32)cc1C (stereo not drawn) | 4.63 µM
10 | CC(=O)N(C1=C(Cl)C(=O)c2ccccc2C1=O)C1CCCCC1 | 9.36 µM
11 | CCOc1ccc(C(=O)NC(=S)Nc2ccc(NC(=O)CC)cc2)cc1[N+](=O)[O-] | 4.35 µM
12 | CCOC(=O)c1csc(NC(=O)c2ccc3c(c2)OCCO3)n1 | > 15 µM (inactive)
13 | C=CCn1c(O)c(N=NC(=S)Nc2ccccc2F)c2ccccc21 | 0.572 µM
14 | COc1cc(O)c(CC=C(C)C)c(O)c1C(=O)CCc1ccc(O)cc1 | 2.76 µM
15 | Cc1cccc(C(=O)NC(=S)NNC(=O)c2ccc(Cl)cc2)c1 | 0.187 µM
16 | CC(C)C1Cc2c(sc3[nH]c(=S)n(Cc4ccccc4)c(=O)c23)CO1 (stereo not drawn) | 2.93 µM
17 | CCCCCn1c(N)c(-c2nc3ccccc3s2)c2c([N+](=O)[O-])nn(CC)c(=O)c21 | 8.16 µM
18 | Cc1cccc2sc(NNC(=O)c3ccc(S(=O)(=O)N4CCc5ccccc5C4)cc3)nc12 | 0.368 µM
19 | COc1ccc(/C=C2/C(=O)N(c3nc4ccccc4s3)N=C2CSc2ccc(Cl)cc2)cc1 | 0.518 µM
20 | Cc1cccc(NC(=O)c2nc[nH]c2C(=O)N[C@@H](CC(C)C)C(=O)OCc2ccccc2)c1 | 1.68 µM
21 | CC(C)CCC(CCNCc1ccccn1)c1ccc(Cl)cc1 (stereo not drawn) | 13.2 µM
22 | Cc1cc(NC(=O)c2sccc2C)n(-c2nc3ccccc3[nH]2)n1 | 2.81 µM
23 | CNC[C@@H](CC1CCCCC1)NC[C@H](CC(C)C)NCCc1cccc(C(F)(F)F)c1 | 5.4 µM
24 | COc1cccc(C(=O)NC(=S)Nc2ccccc2N2CCCCC2)c1 | > 15 µM (inactive)
25 | COc1ccc(N(CC(=O)NCCSCc2cccc(Cl)c2)S(C)(=O)=O)cc1Cl | 4.72 µM

Row | SMILES | EC50
26 | Cc1cc(=O)oc2c3c(cc(OCC(=O)NC4CC4)c12)OC(C)(C)CC3 | > 15 µM (inactive)
27 | Cn1c(SCC(=O)Nc2cccc3ccccc23)nc(O)cc1=O | > 15 µM (inactive)
28 | Clc1ccc(C2C3=C(Nc4ncnn42)c2ccccc2CC3)cc1 (stereo not drawn) | 11.4 µM
29 | COc1ccc(-c2csc(NC(=S)NC(=O)c3cccs3)n2)cc1OC | 13.9 µM
30 | COc1ccc(C2CC(c3cccs3)=NN2C(=O)CSc2nc3c(cnn3-c3ccccc3)c(=O)[nH]2)cc1 (stereo not drawn) | 2.11 µM
31 | COC(=O)c1ccc(CN(c2ccc(C(=O)O)c(O)c2)S(=O)(=O)c2ccc(Cl)c([N+](=O)[O-])c2)cc1 | 2.63 µM
32 | COc1ccc(/C=N/NC(=O)c2cc(C(C)(C)C)[nH]n2)cc1COc1ccc(F)cc1F | 7.62 µM
33 | CC[C@H]1OC(=O)C[C@@H](O)[C@H](C)[C@@H](O[C@@H]2O[C@H](C)C[C@H](N(C)C)[C@H]2O)[C@@H](CC=O)C[C@@H](C)C(=O)C=C[C@]2(C)O[C@H]2[C@@H]1C | < 0.06 µM
34 | Cc1ccc(Oc2ccc3c(c2)C(=O)N(c2ccc(S(=O)(=O)Nc4nccs4)cc2)C3=O)cc1 | 3.06 µM
35 | FC(F)(F)c1ccccc1/C=N/n1c(C2CCCCC2)n[nH]c1=S | 4.76 µM
36 | O=c1cc(-c2ccc(O)c(-c3c(O)cc(O)c4c(=O)cc(-c5ccc(O)cc5)oc34)c2)oc2cc(O)cc(O)c12 | 2.3 µM
37 | COc1ccc(NC(=O)CN(C)C(=O)/C=C/c2cn(-c3ccccc3)nc2-c2ccc(F)cc2)cc1 | 8.39 µM
38 | O=C(O)CN1C(=O)/C(=C\c2cc(Br)ccc2OCc2ccc(Cl)cc2Cl)SC1=S | 1.51 µM
39 | CC(=O)Oc1ccc(-c2nc(-c3cccnc3)no2)cc1 | 4.93 µM
40 | CCn1c(=O)c(C(=O)NNC(=O)c2ccccc2)c(O)c2ccccc21 | 0.839 µM
41 | COc1ccc(-c2oc3ccc(N4CCOCC4)cc3c2C#CC2(O)CCCCC2)cc1 | 2.11 µM
42 | CC1CN(Cc2nc3c(c(=O)[nH]c(=O)n3C)n2CCCc2ccccc2)CC(C)O1 (stereo not drawn) | > 15 µM (inactive)
43 | Oc1ccc(/C=C/c2ccc3cccc(O)c3n2)cc1Br | 1.04 µM
44 | Cc1c(NCc2cc(Cl)cc(Cl)c2O)c(=O)n(-c2ccccc2)n1C | 3.39 µM
45 | COc1ccc(-c2[nH]ncc2N=Nc2cc(C)cc(C)c2)cc1 | 4.27 µM
46 | O=[N+]([O-])c1cccc(/C=C/c2ccc3cccc(O)c3n2)c1 | 2.25 µM
47 | COc1ccc(/C=C/C(=O)NC(=S)NNC(=O)Cc2cccs2)cc1 | 1.23 µM
48 | Oc1ccc(-c2c(C3=CCCCC3)sc3ccccc23)cc1 | 4.97 µM
49 | O=[N+]([O-])c1ccc(N2N=C(c3ccccc3)CC2c2ccccc2O)cc1 (stereo not drawn) | 2.25 µM
50 | O=C(Nc1nnc(SCc2ccccc2Cl)s1)C1COc2ccccc2O1 (stereo not drawn) | 7.21 µM

Row | SMILES | EC50
51 | CCCCOC(=O)c1ccc(NC(=S)N2CCN(c3ncc4c(=O)c(C(=O)O)cn(CC)c4n3)CC2)cc1 | 2.04 µM
52 | CC(=O)Nc1ccc(NC(=O)CSc2nnc(NC(=O)c3ccc(Br)o3)s2)cc1 | 2.68 µM
53 | Oc1c(Br)cc(Br)cc1CNc1cccc2cccnc12 | 4.47 µM
54 | O=C(CSc1nnc(CNC(=O)c2c(F)cccc2F)o1)NCc1ccccc1 | > 15 µM (inactive)
55 | CC(C)c1ccc(OCC(=O)NNC(=S)NC(=O)C2CC2)cc1 | 0.797 µM
56 | CCN(c1ccc(C)cc1C)S(=O)(=O)c1nnc(NC(=O)c2ccco2)s1 | 4.2 µM
57 | COC(=O)C(Nc1ccccc1Cl)(c1cc(C)c(O)c(C)c1)C(F)(F)F (stereo not drawn) | 2.5 µM
58 | Cc1cc(NC(c2ccc(Cl)cc2)c2ccc3cccnc3c2O)no1 (stereo not drawn) | 0.602 µM
59 | O=C(Nc1nnc(C2CC2)o1)c1ccc(S(=O)(=O)N2CCCc3ccccc32)cc1 | 1.34 µM
60 | Clc1ccc(-[n+]2c(-c3cccc(Br)c3)[nH]c3nc4ccccc4nc32)cc1 | 1.67 µM
61 | Cn1c(N)c(C(=O)COC(=O)CCc2c[nH]c3ccccc23)c(=O)n(C)c1=O | 9.68 µM
62 | S=c1[nH]nc(-c2cc(-c3ccccc3)n[nH]2)n1/N=C/c1ccc(Cl)cc1 | 8.67 µM
63 | Fc1ccc(N2CCN(Cc3cn[nH]c3-c3ccccc3)CC2)cc1 | > 15 µM (inactive)
64 | O=C(NC(=S)NNC(=O)c1ccccc1O)c1ccc(F)cc1 | 1.29 µM
65 | Cc1cc(C)nc(-n2nc(C)c(Sc3ccc(F)cc3)c2N)n1 | > 15 µM (inactive)
66 | Cc1cccc(Nc2nc(N)nc(CN3CCN(c4ccccc4F)CC3)n2)c1 | 15.4 µM
67 | CN(C)[C@@H]1C(=O)C(C(N)=O)=C(O)[C@@]2(O)C(=O)C3=C(O)c4c(O)ccc(Cl)c4[C@@](C)(O)[C@H]3C[C@@H]12 | 0.065 µM
68 | COC(=O)c1cc(-c2ccc(Br)cc2)c2c(=O)[nH]c(=O)n(C)c2n1 | 1.22 µM
69 | Cc1ccc(NC(=O)CN2C(=O)S/C(=C/c3ccc(-c4cc(C(=O)O)ccc4C)o3)C2=O)cc1C | 2.11 µM
70 | Cc1ccc(-c2csc(NC(=O)c3ccc([N+](=O)[O-])o3)n2)cc1 | 3.42 µM
71 | c1ccc(-c2csc3ncnc(N4CCc5ccccc5C4)c23)cc1 | 7.04 µM
72 | COc1ccc(-c2cc(C(F)(F)F)nc(NCc3cccs3)n2)cc1 | 4.95 µM
73 | FC(F)(F)c1cccc(-c2cc3ccccc3nc2N2CCCC2)c1 | 3.6 µM
